Measured values published in patent US9283218B2, “Solid dispersion with improved solubility comprising tetrazole derivative as an active ingredient” (HANMI PHARM. CO., LTD., priority 2012, dated 2016).
Structures can show the parent of a compound that is named as a salt.

Legend:
[1] = Solubilities of active ingredient in various solvents (excess added, shaken 2 hours, centrifuged, HPLC); format: physicochemical
Method: In order to find out the most suitable solvent for the solid dispersion, an excessive amount of HM30181A, as an active ingredient, was added to a solvent, shook for 2 hours, and then the resulting mixture was centrifuged and analyzed by HPLC to measure the solubility. Solvents used for solubility test were MC, methanol, EtOH, hexane, diethyl ether, isopropyl alcohol, acetone and DW.

[2] = Dissolution characteristics of HM30181A in mixed solvents of MC, EtOH and DW; format: physicochemical
[3] = Composition 1: HM30181A 15 mg, methylene chloride 450 mg, ethanol 50 mg, distilled water 0 mg
[4] = Composition 2: HM30181A 15 mg, methylene chloride 350 mg, ethanol 150 mg, distilled water 0 mg
[5] = Composition 3: HM30181A 15 mg, methylene chloride 250 mg, ethanol 250 mg, distilled water 0 mg
[6] = Composition 5: HM30181A 15 mg, methylene chloride 350 mg, ethanol 150 mg, distilled water 25 mg

Solubility ([1]; solvent: acetone): 9.23 ppm
Solubility ([1]; solvent: diethyl ether): 0.00 ppm
Solubility ([1]; solvent: distilled water): 0.00 ppm
Solubility ([1]; solvent: ethanol): 382.63 ppm
Solubility ([1]; solvent: hexane): 0.05 ppm
Solubility ([1]; solvent: isopropyl alcohol): 31.29 ppm
Solubility ([1]; solvent: methanol): 10177.50 ppm
Solubility ([1]; solvent: methylene chloride): 6848.28 ppm
Solubility [2, 3]: 10,260 ppm
Solution appearance [2, 3]: Clouded
Solubility [2, 4]: 20,370 ppm
Solution appearance [2, 4]: Clouded
Solubility [2, 5]: 4,710 ppm
Solution appearance [2, 5]: Clouded
Solubility [2, 6]: 27,850 ppm
Solution appearance [2, 6]: Clear
Structure (SMILES): COc1cc2c(cc1OC)CN(CCc1ccc(-n3nnc(-c4cc(OC)c(OC)cc4NC(=O)c4cc(=O)c5ccccc5o4)n3)cc1)CC2 [HM30181A, chromone-2-carboxylic acid [2-(2-{4-[2-(6,7-dimethoxy-3,4-di-hydro-1H-isoquinolin-2-yl)-ethyl]-phenyl}-2H-tetrazol-5-yl)-4,5-dimethoxyphenyl]amine mesylate]
